Columns and labels:
Settings in all cases: Compound concentration 100.0 nM
[1] = biological target: RAC-beta serine/threonine-protein kinase (Homo sapiens) (UniProt P31751)
[2] = biological target: NT-3 growth factor receptor (Homo sapiens) (UniProt Q16288)
[3] = biological target: Dual specificity mitogen-activated protein kinase kinase 4 (Homo sapiens) (UniProt P45985)
[4] = biological target: Tyrosine-protein kinase HCK (Homo sapiens) (UniProt P08631)
[5] = biological target: Serine/threonine-protein kinase RIO1 (Homo sapiens) (UniProt Q9BRS2)
[6] = biological target: Serine/threonine-protein kinase Nek1 (Homo sapiens) (UniProt Q96PY6)
[7] = biological target: Serine/threonine-protein kinase Sgk2 (Homo sapiens) (UniProt Q9HBY8)
Sequence of Serine/threonine-protein kinase Sgk2 (Homo sapiens) (Q9HBY8 whole entry): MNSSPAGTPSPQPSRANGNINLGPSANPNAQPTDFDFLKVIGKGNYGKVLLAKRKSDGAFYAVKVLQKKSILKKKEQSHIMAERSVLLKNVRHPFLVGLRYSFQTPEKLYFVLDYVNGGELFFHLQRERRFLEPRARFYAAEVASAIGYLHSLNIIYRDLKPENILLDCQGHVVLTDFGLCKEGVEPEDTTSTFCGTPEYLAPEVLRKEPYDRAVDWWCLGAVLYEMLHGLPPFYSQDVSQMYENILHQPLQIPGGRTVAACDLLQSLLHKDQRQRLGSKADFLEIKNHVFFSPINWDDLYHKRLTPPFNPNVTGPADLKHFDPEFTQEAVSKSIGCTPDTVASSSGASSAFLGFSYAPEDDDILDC

[8] = biological target: Tyrosine-protein kinase JAK1 (Homo sapiens) (UniProt P23458)
[9] = system: Tyrosine-protein kinase ABL1 (Homo sapiens), P00519 [T315I]
[10] = biological target: Serine/threonine-protein kinase LATS1 (Homo sapiens) (UniProt O95835)
[11] = biological target: Mitogen-activated protein kinase kinase kinase 15 (Homo sapiens) (UniProt Q6ZN16)
[12] = biological target: Megakaryocyte-associated tyrosine-protein kinase (Homo sapiens) (UniProt P42679)
Sequence of Megakaryocyte-associated tyrosine-protein kinase (Homo sapiens) (P42679 whole entry): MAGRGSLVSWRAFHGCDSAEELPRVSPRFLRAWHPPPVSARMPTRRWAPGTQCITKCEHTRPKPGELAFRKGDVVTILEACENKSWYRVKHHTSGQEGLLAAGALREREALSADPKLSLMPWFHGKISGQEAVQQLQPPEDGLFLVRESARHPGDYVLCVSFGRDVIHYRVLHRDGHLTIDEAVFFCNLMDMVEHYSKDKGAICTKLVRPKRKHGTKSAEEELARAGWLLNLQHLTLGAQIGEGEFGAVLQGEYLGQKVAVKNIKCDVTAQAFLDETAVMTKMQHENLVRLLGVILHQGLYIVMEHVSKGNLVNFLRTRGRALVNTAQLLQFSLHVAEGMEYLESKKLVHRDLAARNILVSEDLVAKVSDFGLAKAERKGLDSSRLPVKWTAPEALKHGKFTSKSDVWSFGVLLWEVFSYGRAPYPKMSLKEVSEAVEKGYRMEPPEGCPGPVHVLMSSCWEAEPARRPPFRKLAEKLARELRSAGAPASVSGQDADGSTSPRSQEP

[13] = biological target: Serine/threonine-protein kinase Nek6 (Homo sapiens) (UniProt Q9HC98)
[14] = biological target: RAC-alpha serine/threonine-protein kinase (Homo sapiens) (UniProt P31749)
Sequence of RAC-alpha serine/threonine-protein kinase (Homo sapiens) (P31749 whole entry): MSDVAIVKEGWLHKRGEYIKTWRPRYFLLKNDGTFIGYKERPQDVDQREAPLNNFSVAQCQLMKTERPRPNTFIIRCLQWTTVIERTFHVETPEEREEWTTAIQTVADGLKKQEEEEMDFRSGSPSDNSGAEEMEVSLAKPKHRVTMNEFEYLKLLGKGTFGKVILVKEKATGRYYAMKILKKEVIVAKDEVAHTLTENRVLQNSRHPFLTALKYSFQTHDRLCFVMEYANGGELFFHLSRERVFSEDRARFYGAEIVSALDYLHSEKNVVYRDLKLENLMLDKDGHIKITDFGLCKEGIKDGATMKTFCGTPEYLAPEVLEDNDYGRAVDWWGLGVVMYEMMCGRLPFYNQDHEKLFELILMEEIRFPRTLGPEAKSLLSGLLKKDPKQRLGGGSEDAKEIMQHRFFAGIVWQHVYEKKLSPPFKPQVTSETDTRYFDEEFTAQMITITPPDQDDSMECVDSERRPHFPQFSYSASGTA

[15] = biological target: Ribosomal protein S6 kinase alpha-4 (Homo sapiens) (UniProt O75676)
Sequence of Ribosomal protein S6 kinase alpha-4 (Homo sapiens) (O75676 whole entry, looked up): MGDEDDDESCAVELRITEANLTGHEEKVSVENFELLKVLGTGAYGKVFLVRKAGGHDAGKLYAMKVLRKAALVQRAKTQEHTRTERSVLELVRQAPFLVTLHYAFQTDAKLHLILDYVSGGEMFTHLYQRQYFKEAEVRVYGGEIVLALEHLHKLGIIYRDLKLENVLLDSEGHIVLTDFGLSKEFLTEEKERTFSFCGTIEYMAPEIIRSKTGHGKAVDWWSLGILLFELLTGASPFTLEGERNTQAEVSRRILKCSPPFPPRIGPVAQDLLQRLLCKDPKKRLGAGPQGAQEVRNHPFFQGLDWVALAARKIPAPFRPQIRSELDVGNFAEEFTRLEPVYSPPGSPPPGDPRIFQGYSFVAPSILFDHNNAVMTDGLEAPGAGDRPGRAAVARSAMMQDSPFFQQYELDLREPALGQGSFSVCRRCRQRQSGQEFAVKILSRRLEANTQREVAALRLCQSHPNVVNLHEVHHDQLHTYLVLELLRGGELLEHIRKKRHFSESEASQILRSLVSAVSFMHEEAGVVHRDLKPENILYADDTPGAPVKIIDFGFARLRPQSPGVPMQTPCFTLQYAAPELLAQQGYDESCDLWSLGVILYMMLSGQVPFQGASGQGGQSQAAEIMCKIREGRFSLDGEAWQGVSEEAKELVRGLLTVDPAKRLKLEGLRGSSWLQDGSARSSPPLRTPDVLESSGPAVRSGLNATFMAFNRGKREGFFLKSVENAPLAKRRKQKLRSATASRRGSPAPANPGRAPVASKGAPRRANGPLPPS

[16] = biological target: Aurora kinase A (Homo sapiens) (UniProt O14965)
[17] = biological target: Serine/threonine-protein kinase RIO3 (Homo sapiens) (UniProt O14730)
[18] = biological target: Tyrosine-protein kinase ABL1 (Homo sapiens) (UniProt P00519)
[19] = system: Mast/stem cell growth factor receptor Kit (Homo sapiens), P10721 [L576P]
[20] = biological target: Inhibitor of nuclear factor kappa-B kinase subunit epsilon (Homo sapiens) (UniProt Q14164)
[21] = biological target: Phosphorylase b kinase regulatory subunit alpha, liver isoform (Homo sapiens) (UniProt P46019)
[22] = biological target: Calcium/calmodulin-dependent protein kinase type II subunit delta (Homo sapiens) (UniProt Q13557)
Sequence of Calcium/calmodulin-dependent protein kinase type II subunit delta (Homo sapiens) (Q13557 whole entry): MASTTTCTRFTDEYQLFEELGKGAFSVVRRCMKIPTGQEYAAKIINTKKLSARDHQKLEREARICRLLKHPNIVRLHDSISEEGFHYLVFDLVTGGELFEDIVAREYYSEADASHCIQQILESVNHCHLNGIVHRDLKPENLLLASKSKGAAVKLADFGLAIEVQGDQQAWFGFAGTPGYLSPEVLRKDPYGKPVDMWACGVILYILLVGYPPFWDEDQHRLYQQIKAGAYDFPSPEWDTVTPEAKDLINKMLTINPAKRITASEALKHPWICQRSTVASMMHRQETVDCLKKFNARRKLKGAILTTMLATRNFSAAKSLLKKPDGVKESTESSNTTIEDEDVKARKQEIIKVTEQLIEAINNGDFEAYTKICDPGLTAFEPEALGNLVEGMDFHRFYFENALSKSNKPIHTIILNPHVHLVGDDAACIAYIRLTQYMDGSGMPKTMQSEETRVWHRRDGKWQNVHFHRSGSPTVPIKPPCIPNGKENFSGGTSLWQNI

[23] = biological target: Serine/threonine-protein kinase 10 (Homo sapiens) (UniProt O94804)
[24] = biological target: Serine/threonine-protein kinase PAK 2 (Homo sapiens) (UniProt Q13177)
[25] = biological target: Tyrosine-protein kinase Srms (Homo sapiens) (UniProt Q9H3Y6)
[26] = system: Proto-oncogene tyrosine-protein kinase receptor Ret (Homo sapiens), P07949 [V804M]
[27] = biological target: Calcium/calmodulin-dependent protein kinase type IV (Homo sapiens) (UniProt Q16566)
Sequence of Calcium/calmodulin-dependent protein kinase type IV (Homo sapiens) (Q16566 whole entry, the tested form may be a part): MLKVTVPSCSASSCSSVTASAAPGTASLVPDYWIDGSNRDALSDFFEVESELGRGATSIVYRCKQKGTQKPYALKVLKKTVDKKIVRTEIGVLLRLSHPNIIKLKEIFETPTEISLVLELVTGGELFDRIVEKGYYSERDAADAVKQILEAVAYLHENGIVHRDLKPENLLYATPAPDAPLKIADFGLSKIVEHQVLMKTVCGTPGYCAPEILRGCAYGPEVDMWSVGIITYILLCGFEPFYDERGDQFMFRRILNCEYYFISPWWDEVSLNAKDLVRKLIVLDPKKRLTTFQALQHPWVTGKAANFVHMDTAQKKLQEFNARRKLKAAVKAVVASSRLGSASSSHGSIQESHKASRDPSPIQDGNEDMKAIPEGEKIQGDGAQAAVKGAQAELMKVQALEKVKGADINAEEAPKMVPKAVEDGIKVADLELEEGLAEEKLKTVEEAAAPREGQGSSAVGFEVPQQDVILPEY

[28] = biological target: Epithelial discoidin domain-containing receptor 1 (Homo sapiens) (UniProt Q08345)
[29] = biological target: Dual specificity tyrosine-phosphorylation-regulated kinase 1B (Homo sapiens) (UniProt Q9Y463)
[30] = biological target: MAP/microtubule affinity-regulating kinase 4 (Homo sapiens) (UniProt Q96L34)
[31] = system: Epidermal growth factor receptor (Homo sapiens), P00533 [UNDEFINED MUTATION]
[32] = biological target: Serine/threonine-protein kinase tousled-like 2 (Homo sapiens) (UniProt Q86UE8)
Sequence of Serine/threonine-protein kinase tousled-like 2 (Homo sapiens) (Q86UE8 whole entry, looked up): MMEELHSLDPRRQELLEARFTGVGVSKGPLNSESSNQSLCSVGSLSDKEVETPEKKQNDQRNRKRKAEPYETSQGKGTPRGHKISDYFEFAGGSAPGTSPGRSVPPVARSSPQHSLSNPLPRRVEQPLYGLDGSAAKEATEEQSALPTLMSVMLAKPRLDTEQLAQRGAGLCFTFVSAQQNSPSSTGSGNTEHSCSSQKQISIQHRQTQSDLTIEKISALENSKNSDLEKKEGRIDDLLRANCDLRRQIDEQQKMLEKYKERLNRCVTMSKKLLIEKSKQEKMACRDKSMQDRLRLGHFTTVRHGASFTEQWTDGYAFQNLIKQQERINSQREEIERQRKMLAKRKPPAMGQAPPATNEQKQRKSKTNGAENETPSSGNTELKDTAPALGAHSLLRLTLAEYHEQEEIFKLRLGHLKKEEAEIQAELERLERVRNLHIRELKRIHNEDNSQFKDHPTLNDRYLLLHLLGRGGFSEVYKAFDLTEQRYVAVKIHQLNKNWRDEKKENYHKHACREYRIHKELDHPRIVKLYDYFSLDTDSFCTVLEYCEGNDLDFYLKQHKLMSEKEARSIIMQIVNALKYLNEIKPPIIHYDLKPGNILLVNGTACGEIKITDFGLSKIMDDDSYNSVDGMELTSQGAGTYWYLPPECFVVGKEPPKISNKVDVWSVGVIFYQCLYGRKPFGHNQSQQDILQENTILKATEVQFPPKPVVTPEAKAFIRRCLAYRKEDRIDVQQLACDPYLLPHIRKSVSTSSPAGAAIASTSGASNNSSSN

[33] = biological target: Receptor-type tyrosine-protein kinase FLT3 (Homo sapiens) (UniProt P36888)
[34] = biological target: Cyclin-dependent kinase 9 (Homo sapiens) (UniProt P50750)
[35] = biological target: Ribosomal protein S6 kinase alpha-6 (Homo sapiens) (UniProt Q9UK32)
[36] = biological target: Phosphatidylinositol 3-kinase catalytic subunit type 3 (Homo sapiens) (UniProt Q8NEB9)
[37] = system: Tyrosine-protein kinase ABL1 (Homo sapiens), P00519 [Q252H]
[38] = biological target: Calcium/calmodulin-dependent protein kinase type II subunit alpha (Homo sapiens) (UniProt Q9UQM7)
[39] = biological target: Serine/threonine-protein kinase D3 (Homo sapiens) (UniProt O94806)
[40] = biological target: Serine/threonine-protein kinase 24 (Homo sapiens) (UniProt Q9Y6E0)
[41] = biological target: 5'-AMP-activated protein kinase catalytic subunit alpha-2 (Homo sapiens) (UniProt P54646)
[42] = biological target: Serine/threonine-protein kinase haspin (Homo sapiens) (UniProt Q8TF76)
[43] = biological target: Phosphatidylinositol 4,5-bisphosphate 3-kinase catalytic subunit alpha isoform (Homo sapiens) (UniProt P42336)
[44] = biological target: Serine/threonine-protein kinase PLK1 (Homo sapiens) (UniProt P53350)
[45] = biological target: Misshapen-like kinase 1 (Homo sapiens) (UniProt Q8N4C8)

Sequence of Dual specificity mitogen-activated protein kinase kinase 4 (Homo sapiens) (P45985 whole entry): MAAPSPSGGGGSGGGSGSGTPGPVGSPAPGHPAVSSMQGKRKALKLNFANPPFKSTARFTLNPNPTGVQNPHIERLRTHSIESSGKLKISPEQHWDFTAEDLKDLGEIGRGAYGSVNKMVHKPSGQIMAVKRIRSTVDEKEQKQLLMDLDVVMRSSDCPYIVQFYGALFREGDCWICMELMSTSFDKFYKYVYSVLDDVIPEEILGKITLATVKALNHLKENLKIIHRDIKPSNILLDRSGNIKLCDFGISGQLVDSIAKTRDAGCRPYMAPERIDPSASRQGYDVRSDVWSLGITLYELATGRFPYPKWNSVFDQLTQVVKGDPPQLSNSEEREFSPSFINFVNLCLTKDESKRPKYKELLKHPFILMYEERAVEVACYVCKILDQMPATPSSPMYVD
Sequence of Tyrosine-protein kinase HCK (Homo sapiens) (P08631 2-526 limits assumed): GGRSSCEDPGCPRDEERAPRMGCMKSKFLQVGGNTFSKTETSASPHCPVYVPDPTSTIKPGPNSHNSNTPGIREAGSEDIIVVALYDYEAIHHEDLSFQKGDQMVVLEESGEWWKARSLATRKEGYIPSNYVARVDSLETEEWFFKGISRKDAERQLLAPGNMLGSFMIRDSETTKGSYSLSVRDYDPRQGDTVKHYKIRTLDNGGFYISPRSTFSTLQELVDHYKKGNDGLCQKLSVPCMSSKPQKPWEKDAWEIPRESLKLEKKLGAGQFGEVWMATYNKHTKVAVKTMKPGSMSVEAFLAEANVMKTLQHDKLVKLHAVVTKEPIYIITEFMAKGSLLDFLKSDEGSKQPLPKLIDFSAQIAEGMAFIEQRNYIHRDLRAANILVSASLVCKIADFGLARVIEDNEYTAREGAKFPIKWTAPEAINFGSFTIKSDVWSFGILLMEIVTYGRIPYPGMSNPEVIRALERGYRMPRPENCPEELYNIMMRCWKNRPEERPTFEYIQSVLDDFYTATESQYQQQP

CS(=O)(=O)N1CCCC(NC(=O)[C@H](CCC2CCCCC2)NC(=O)c2ccc(CNc3ncnc4c3nnn4-c3ccccc3)cc2)C1 (stereo not given in full) [SR-301]
residual activity [1]: 100% | residual activity [2]: 86% | residual activity [3]: 100% | residual activity [4]: 100% | residual activity [5]: 54% | residual activity [6]: 51% | residual activity [7]: 100% | residual activity [8]: 89% | residual activity [9]: 100% | residual activity [10]: 100% | residual activity [11]: 74% | residual activity [12]: 100% | residual activity [13]: 86% | residual activity [14]: 100% | residual activity [15]: 91% | residual activity [16]: 100% | residual activity [17]: 88% | residual activity [18]: 82% | residual activity [19]: 78% | residual activity [20]: 73% | residual activity [21]: 100% | residual activity [22]: 93% | residual activity [23]: 100% | residual activity [24]: 100% | residual activity [25]: 98% | residual activity [26]: 82% | residual activity [27]: 98% | residual activity [28]: 89% | residual activity [29]: 100% | residual activity [30]: 71% | residual activity [31]: 93% | residual activity [32]: 82% | residual activity [33]: 97% | residual activity [34]: 87% | residual activity [35]: 100% | residual activity [36]: 100% | residual activity [37]: 89% | residual activity [38]: 100% | residual activity [39]: 100% | residual activity [40]: 100% | residual activity [41]: 100% | residual activity [42]: 100% | residual activity [43]: 98% | residual activity [44]: 80% | residual activity [45]: 85%

CS(=O)(=O)N1CCCC(NC(=O)[C@H](CCC2CCCCC2)NC(=O)c2ccc(CNC(=O)c3cnc4ccccn34)cc2)C1 (stereo not given in full) [SR-302]
residual activity [1]: 93% | residual activity [2]: 88% | residual activity [3]: 100% | residual activity [4]: 100% | residual activity [5]: 73% | residual activity [6]: 68% | residual activity [7]: 100% | residual activity [8]: 100% | residual activity [9]: 83% | residual activity [10]: 98% | residual activity [11]: 100% | residual activity [12]: 100% | residual activity [13]: 100% | residual activity [14]: 100% | residual activity [15]: 100% | residual activity [16]: 100% | residual activity [17]: 97% | residual activity [18]: 61% | residual activity [19]: 55% | residual activity [20]: 100% | residual activity [21]: 100% | residual activity [22]: 84% | residual activity [23]: 100% | residual activity [24]: 93% | residual activity [25]: 71% | residual activity [26]: 100% | residual activity [27]: 94% | residual activity [28]: 0.1% | residual activity [29]: 100% | residual activity [30]: 100% | residual activity [31]: 90% | residual activity [32]: 89% | residual activity [33]: 93% | residual activity [34]: 100% | residual activity [35]: 97% | residual activity [36]: 100% | residual activity [37]: 37% | residual activity [38]: 100% | residual activity [39]: 90% | residual activity [40]: 95% | residual activity [41]: 79% | residual activity [42]: 74% | residual activity [43]: 86% | residual activity [44]: 100% | residual activity [45]: 85%

Reference: ChEMBL document CHEMBL4507324 (2021)
